Measurements taken from BindingDB's records for doi:10.7270/Q29G5K5D (Cc_Pmlsc, 2007).

What follows are compounds tested against T1, Dual specificity protein phosphatase 1 (Homo sapiens, UniProt P28562) (assay: MKP-1 phosphatase inhibitors, SAR follow-up, biochemical, in vitro (AID 579)). Conditions: pH 7; 23 °C.
T1 sequence (P28562 whole entry): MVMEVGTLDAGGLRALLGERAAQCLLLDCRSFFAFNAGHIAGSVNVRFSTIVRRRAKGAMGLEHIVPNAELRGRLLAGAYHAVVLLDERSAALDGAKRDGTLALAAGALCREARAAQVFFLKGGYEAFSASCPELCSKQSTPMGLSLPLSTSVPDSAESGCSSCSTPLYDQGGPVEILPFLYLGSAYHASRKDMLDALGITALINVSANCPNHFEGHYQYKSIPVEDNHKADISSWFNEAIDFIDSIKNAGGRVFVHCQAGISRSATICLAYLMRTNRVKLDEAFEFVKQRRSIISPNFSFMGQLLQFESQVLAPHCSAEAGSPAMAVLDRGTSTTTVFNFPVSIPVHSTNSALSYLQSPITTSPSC

Row | SMILES | IC50 [µM]
1 | Cn1c(=O)c(C(=O)COC(=O)c2cc(C(F)(F)F)nc3ccccc23)c(N)n(Cc2ccccc2)c1=O [2-(trifluoromethyl)-4-quinolinecarboxylic acid [2-[4-amino-1-methyl-2,6-dioxo-3-(phenylmethyl)-5-pyrimidinyl]-2-oxoethyl] ester] | > 50
2 | CC(C)Cn1c(N)c(C(=O)COC(=O)c2cc(C(F)(F)F)nc3ccccc23)c(=O)n(C)c1=O [2-(trifluoromethyl)-4-quinolinecarboxylic acid [2-[4-amino-1-methyl-3-(2-methylpropyl)-2,6-dioxo-5-pyrimidinyl]-2-oxoethyl] ester] | > 50
3 | Cn1c(N)c(C(=O)COC(=O)c2cc(C(F)(F)F)nc3ccccc23)c(=O)n(Cc2ccccc2)c1=O [2-(trifluoromethyl)-4-quinolinecarboxylic acid [2-[6-amino-1-methyl-2,4-dioxo-3-(phenylmethyl)-5-pyrimidinyl]-2-oxoethyl] ester] | > 50
4 | O=C(O)c1cc(C(F)(F)F)nc2ccccc12 [2-(trifluoromethyl)-4-quinolinecarboxylic acid] | > 50
5 | N#CCC(=O)NC(=O)NCC1CC1 [2-cyano-N-(cyclopropylmethylcarbamoyl)acetamide] | > 50
6 | Cn1c(N)c(C(=O)COC(=O)c2cc(C3CC3)nc3ccccc23)c(=O)n(C)c1=O [2-cyclopropyl-4-quinolinecarboxylic acid [2-(4-amino-1,3-dimethyl-2,6-dioxo-5-pyrimidinyl)-2-oxoethyl] ester] | > 50
7 | Cn1c(=O)c(C(=O)COC(=O)c2cc(C3CC3)nc3ccccc23)c(N)n(Cc2ccccc2)c1=O [2-cyclopropyl-4-quinolinecarboxylic acid [2-[4-amino-1-methyl-2,6-dioxo-3-(phenylmethyl)-5-pyrimidinyl]-2-oxoethyl] ester] | > 50
8 | CC(C)Cn1c(N)c(C(=O)COC(=O)c2cc(C3CC3)nc3ccccc23)c(=O)n(C)c1=O [2-cyclopropyl-4-quinolinecarboxylic acid [2-[4-amino-1-methyl-3-(2-methylpropyl)-2,6-dioxo-5-pyrimidinyl]-2-oxoethyl] ester] | > 50
9 | O=C(O)c1cc(C2CC2)nc2ccccc12 [2-cyclopropyl-4-quinolinecarboxylic acid] | > 50
10 | Cn1c(N)c(C(=O)COC(=O)c2cc(-c3ccccc3)nc3ccccc23)c(=O)n(C)c1=O [2-phenyl-4-quinolinecarboxylic acid [2-(4-amino-1,3-dimethyl-2,6-dioxo-5-pyrimidinyl)-2-oxoethyl] ester] | > 50
11 | CC(C)Cn1c(N)c(C(=O)COC(=O)c2cc(-c3ccccc3)nc3ccccc23)c(=O)n(C)c1=O [2-phenyl-4-quinolinecarboxylic acid [2-[4-amino-1-methyl-3-(2-methylpropyl)-2,6-dioxo-5-pyrimidinyl]-2-oxoethyl] ester] | > 50
12 | Cn1c(N)c(C(=O)COC(=O)c2cc(-c3ccccc3)nc3ccccc23)c(=O)n(Cc2ccccc2)c1=O [2-phenyl-4-quinolinecarboxylic acid [2-[6-amino-1-methyl-2,4-dioxo-3-(phenylmethyl)-5-pyrimidinyl]-2-oxoethyl] ester] | > 50
13 | FC(F)(F)c1cc(Br)c2cccc(C(F)(F)F)c2n1 [4-bromanyl-2,8-bis(trifluoromethyl)quinoline] | > 50
14 | Cn1c(N)c(C(=O)COC(=O)c2ccnc3ccccc23)c(=O)n(C)c1=O [4-quinolinecarboxylic acid [2-(4-amino-1,3-dimethyl-2,6-dioxo-5-pyrimidinyl)-2-oxoethyl] ester] | > 50
15 | Cn1c(=O)cc(N)n(Cc2ccccc2)c1=O [6-amino-1-benzyl-3-methyl-pyrimidine-2,4-quinone] | > 50
16 | Cn1c(=O)c(C(=O)CCl)c(N)n(Cc2ccccc2)c1=O [6-amino-1-benzyl-5-(2-chloroacetyl)-3-methyl-pyrimidine-2,4-quinone] | > 50
17 | Nc1cc(=O)[nH]c(=O)n1Cc1ccccc1 [6-amino-1-benzylpyrimidine-2,4-dione] | > 50
18 | Cn1c(N)cc(=O)n(Cc2ccccc2)c1=O [6-amino-1-methyl-3-(phenylmethyl)pyrimidine-2,4-dione] | > 50
19 | Cn1c(N)c(C(=O)CCl)c(=O)n(Cc2ccccc2)c1=O [6-amino-3-benzyl-5-(2-chloroacetyl)-1-methyl-pyrimidine-2,4-quinone] | > 50
20 | Cn1c(N)c(C(=O)CCl)c(=O)n(C)c1=O [6-amino-5-(2-chloro-1-oxoethyl)-1,3-dimethylpyrimidine-2,4-dione] | > 50
21 | Cn1c(=O)c(C(=O)CCl)c(N)n(CC2CC2)c1=O [6-amino-5-(2-chloro-1-oxoethyl)-1-(cyclopropylmethyl)-3-methylpyrimidine-2,4-dione] | > 50
22 | CC(C)Cn1c(N)c(C(=O)CCl)c(=O)n(C)c1=O [6-amino-5-(2-chloro-1-oxoethyl)-3-methyl-1-(2-methylpropyl)pyrimidine-2,4-dione] | > 50
23 | NC(=O)NCc1ccccc1 [(phenylmethyl)urea] | > 50
24 | CN(C)C=Nc1cc(=O)[nH]c(=O)n1CC1CC1 [CC-PMLSC- DMA-P139] | > 50
25 | CN(C)/C=N/c1cc(=O)n(C)c(=O)n1Cc1ccccc1 [CC-PMLSC-DMA-P129] | > 50
26 | CN(C)/C=N/c1cc(=O)n(Cc2ccccc2)c(=O)n1C [CC-PMLSC-DMA-P131] | > 50

Results, then the compound that gave them:

Row | IC50 [µM] | SMILES
27 | > 50 | Nc1cc(=O)[nH]c(=O)n1CC1CC1
28 | > 50 | NC(=O)NCC1CC1 [1-(cyclopropylmethyl)urea]
29 | > 50 | Oc1cc(C(F)(F)F)nc2c(C(F)(F)F)cccc12 [2,8-bis(trifluoromethyl)-1H-quinolin-4-one]
30 | > 50 | Cn1c(N)c(C(=O)COC(=O)c2cc(C(F)(F)F)nc3c(C(F)(F)F)cccc23)c(=O)n(C)c1=O [2,8-bis(trifluoromethyl)-4-quinolinecarboxylic acid [2-(4-amino-1,3-dimethyl-2,6-dioxo-5-pyrimidinyl)-2-oxoethyl] ester]
31 | > 50 | Cn1c(=O)c(C(=O)COC(=O)c2cc(C(F)(F)F)nc3c(C(F)(F)F)cccc23)c(N)n(Cc2ccccc2)c1=O [2,8-bis(trifluoromethyl)-4-quinolinecarboxylic acid [2-[4-amino-1-methyl-2,6-dioxo-3-(phenylmethyl)-5-pyrimidinyl]-2-oxoethyl] ester]
32 | > 50 | CC(C)Cn1c(N)c(C(=O)COC(=O)c2cc(C(F)(F)F)nc3c(C(F)(F)F)cccc23)c(=O)n(C)c1=O [2,8-bis(trifluoromethyl)-4-quinolinecarboxylic acid [2-[4-amino-1-methyl-3-(2-methylpropyl)-2,6-dioxo-5-pyrimidinyl]-2-oxoethyl] ester]
33 | > 50 | Cn1c(=O)c(C(=O)COC(=O)c2cc(C(F)(F)F)nc3c(C(F)(F)F)cccc23)c(N)n(CC2CC2)c1=O [2,8-bis(trifluoromethyl)-4-quinolinecarboxylic acid [2-[6-amino-1-(cyclopropylmethyl)-3-methyl-2,4-dioxo-5-pyrimidinyl]-2-oxoethyl] ester]
34 | > 50 | Cn1c(N)c(C(=O)COC(=O)c2cc(C(F)(F)F)nc3c(C(F)(F)F)cccc23)c(=O)n(Cc2ccccc2)c1=O [2,8-bis(trifluoromethyl)-4-quinolinecarboxylic acid [2-[6-amino-1-methyl-2,4-dioxo-3-(phenylmethyl)-5-pyrimidinyl]-2-oxoethyl] ester]
35 | > 50 | O=C(O)c1cc(C(F)(F)F)nc2c(C(F)(F)F)cccc12 [2,8-bis(trifluoromethyl)-4-quinolinecarboxylic acid]
36 | 20.6 | Cn1c(N)c(C(=O)COC(=O)c2cc(-c3ccco3)nc3ccccc23)c(=O)n(C)c1=O [2-(2-furanyl)-4-quinolinecarboxylic acid [2-(4-amino-1,3-dimethyl-2,6-dioxo-5-pyrimidinyl)-2-oxoethyl] ester]
37 | 50 | CC(C)Cn1c(N)c(C(=O)COC(=O)c2cc(-c3ccco3)nc3ccccc23)c(=O)n(C)c1=O [2-(2-furanyl)-4-quinolinecarboxylic acid [2-[4-amino-1-methyl-3-(2-methylpropyl)-2,6-dioxo-5-pyrimidinyl]-2-oxoethyl] ester]
38 | 24.6 | Cn1c(=O)c(C(=O)COC(=O)c2cc(-c3ccco3)nc3ccccc23)c(N)n(CC2CC2)c1=O [2-(2-furanyl)-4-quinolinecarboxylic acid [2-[6-amino-1-(cyclopropylmethyl)-3-methyl-2,4-dioxo-5-pyrimidinyl]-2-oxoethyl] ester]
39 | 16.9 | Cn1c(N)c(C(=O)COC(=O)c2cc(-c3ccco3)nc3ccccc23)c(=O)n(Cc2ccccc2)c1=O [2-(2-furanyl)-4-quinolinecarboxylic acid [2-[6-amino-1-methyl-2,4-dioxo-3-(phenylmethyl)-5-pyrimidinyl]-2-oxoethyl] ester]
40 | > 50 | O=C(O)c1cc(-c2ccco2)nc2ccccc12 [2-(2-furanyl)-4-quinolinecarboxylic acid]
41 | > 50 | Cn1c(N)c(C(=O)COC(=O)c2cc(C(F)(F)F)nc3ccccc23)c(=O)n(C)c1=O [2-(trifluoromethyl)-4-quinolinecarboxylic acid [2-(4-amino-1,3-dimethyl-2,6-dioxo-5-pyrimidinyl)-2-oxoethyl] ester]
42 | 28.9 | Cn1c(N)c(C(=O)COC(=O)c2cc(C3CC3)nc3ccccc23)c(=O)n(Cc2ccccc2)c1=O [2-cyclopropyl-4-quinolinecarboxylic acid [2-[6-amino-1-methyl-2,4-dioxo-3-(phenylmethyl)-5-pyrimidinyl]-2-oxoethyl] ester]
43 | 50 | Cn1c(=O)c(C(=O)COC(=O)c2cc(-c3ccccc3)nc3ccccc23)c(N)n(Cc2ccccc2)c1=O [2-phenyl-4-quinolinecarboxylic acid [2-[4-amino-1-methyl-2,6-dioxo-3-(phenylmethyl)-5-pyrimidinyl]-2-oxoethyl] ester]
